According to ChEMBL document CHEMBL4420070, “6-6 Fused Bicyclic Heteroaryl Compounds and their Use as LATS Inhibitors” (2018):
Active and inactive are the calls of the source. The rule behind the calls is not given here.

Key:
[1] = biological target: T1, Serine/threonine-protein kinase LATS (Homo sapiens) (UniProt Q9NRM7+O95835); assay: Inhibition of LATS in human limbal epithelial cells assessed as induction of limbal stem cell expansion by measuring expansion factor ratio at 10 uM measured after 2 weeks by p63alpha expression detection based immunohistochemistry relative to control; design: scale not given: the % may be the effect or the level left
T1 sequence (Q9NRM7 whole entry, looked up, one chain of several): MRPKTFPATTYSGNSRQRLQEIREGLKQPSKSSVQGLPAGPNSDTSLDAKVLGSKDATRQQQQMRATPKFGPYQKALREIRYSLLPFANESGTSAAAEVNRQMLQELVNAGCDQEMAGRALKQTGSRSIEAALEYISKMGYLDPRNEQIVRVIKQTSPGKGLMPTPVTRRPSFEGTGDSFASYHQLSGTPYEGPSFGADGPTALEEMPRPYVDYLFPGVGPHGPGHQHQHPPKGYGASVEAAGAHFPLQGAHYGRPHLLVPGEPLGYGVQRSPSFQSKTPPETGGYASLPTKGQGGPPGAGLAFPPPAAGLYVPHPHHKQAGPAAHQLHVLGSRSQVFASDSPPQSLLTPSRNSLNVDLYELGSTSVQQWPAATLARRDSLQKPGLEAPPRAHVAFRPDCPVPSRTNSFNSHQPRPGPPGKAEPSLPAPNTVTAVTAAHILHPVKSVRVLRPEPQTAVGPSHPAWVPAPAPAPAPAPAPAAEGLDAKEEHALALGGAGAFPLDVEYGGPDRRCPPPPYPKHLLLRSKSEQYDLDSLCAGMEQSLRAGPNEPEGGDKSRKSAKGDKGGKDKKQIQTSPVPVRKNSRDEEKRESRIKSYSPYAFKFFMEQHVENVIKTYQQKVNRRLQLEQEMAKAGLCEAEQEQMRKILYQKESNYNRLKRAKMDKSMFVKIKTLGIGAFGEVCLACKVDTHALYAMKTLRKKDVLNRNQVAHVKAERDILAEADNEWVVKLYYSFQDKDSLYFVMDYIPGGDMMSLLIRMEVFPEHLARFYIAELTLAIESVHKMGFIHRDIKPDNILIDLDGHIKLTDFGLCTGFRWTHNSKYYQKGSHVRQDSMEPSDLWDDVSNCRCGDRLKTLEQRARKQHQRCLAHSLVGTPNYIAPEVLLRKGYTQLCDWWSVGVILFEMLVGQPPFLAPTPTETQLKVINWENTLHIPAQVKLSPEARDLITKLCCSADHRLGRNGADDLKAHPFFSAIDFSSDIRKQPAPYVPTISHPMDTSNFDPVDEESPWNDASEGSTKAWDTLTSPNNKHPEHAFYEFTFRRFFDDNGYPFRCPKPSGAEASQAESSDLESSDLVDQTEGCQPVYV

[2] = biological target: T1, Serine/threonine-protein kinase LATS (Homo sapiens); assay: Inhibition of LATS in human corneal endothelium cells assessed as induction of cell expansion by measuring cell density at 10 uM by Sytox orange dye based epifluorescence microscopy
[3] = biological target: T2, Serine/threonine-protein kinase LATS1 (Homo sapiens, UniProt O95835); assay: Inhibition of human LATS1 kinase domain (589 to 1130 amino acids) incubated for 30 mins by HTRF assay
T2 sequence (O95835 whole entry): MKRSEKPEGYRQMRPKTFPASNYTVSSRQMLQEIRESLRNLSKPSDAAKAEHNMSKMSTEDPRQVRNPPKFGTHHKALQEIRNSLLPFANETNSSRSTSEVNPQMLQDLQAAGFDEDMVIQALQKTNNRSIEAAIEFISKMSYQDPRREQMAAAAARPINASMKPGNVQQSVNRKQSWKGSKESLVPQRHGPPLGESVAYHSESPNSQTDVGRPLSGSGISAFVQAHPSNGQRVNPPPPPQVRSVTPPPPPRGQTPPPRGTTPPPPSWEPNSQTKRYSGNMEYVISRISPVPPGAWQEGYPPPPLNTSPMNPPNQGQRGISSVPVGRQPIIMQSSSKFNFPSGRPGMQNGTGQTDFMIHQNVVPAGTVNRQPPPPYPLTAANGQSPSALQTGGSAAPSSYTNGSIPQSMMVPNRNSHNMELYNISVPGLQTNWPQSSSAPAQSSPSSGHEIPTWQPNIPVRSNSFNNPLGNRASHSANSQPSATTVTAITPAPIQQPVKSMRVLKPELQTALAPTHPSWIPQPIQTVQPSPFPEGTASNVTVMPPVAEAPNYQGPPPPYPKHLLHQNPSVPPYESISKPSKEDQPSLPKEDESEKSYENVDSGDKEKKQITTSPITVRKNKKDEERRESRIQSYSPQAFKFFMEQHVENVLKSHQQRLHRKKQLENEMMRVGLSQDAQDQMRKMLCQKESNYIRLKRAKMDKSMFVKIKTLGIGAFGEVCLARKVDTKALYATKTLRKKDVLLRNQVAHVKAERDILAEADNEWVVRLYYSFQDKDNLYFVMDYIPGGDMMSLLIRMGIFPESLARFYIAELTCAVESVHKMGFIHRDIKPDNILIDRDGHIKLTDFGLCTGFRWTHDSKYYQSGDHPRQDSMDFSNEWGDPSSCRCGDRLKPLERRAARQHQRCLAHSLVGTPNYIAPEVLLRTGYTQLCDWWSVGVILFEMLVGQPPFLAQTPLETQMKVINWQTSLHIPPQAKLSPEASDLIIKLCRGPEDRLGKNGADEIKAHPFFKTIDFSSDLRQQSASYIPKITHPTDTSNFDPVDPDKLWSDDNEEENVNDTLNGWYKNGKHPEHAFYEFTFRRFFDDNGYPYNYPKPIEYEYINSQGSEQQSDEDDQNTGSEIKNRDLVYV

[4] = Drug level in cell pellets of human corneal endothelium cells by LC-MS analysis; format: ADME
[5] = Total drug level in cell pellets of human limbal stem cells by LC-MS analysis; format: ADME
[6] = Total drug level in cell pellets of human corneal endothelium cells by LC-MS analysis; format: ADME
[7] = tested on: Mus musculus; assay: Inhibition of LATS in C57BL/6J mouse assessed as change in CTGF mRNA expression level at 10 mg/kg, po administered as single dose measured after 2 hrs by qRT-PCR analysis relative to control; format: functional
[8] = tested on: Mus musculus; assay: Inhibition of LATS in C57BL/6J mouse assessed as change in Cyr61 mRNA expression level at 10 mg/kg, po administered as single dose measured after 2 hrs by qRT-PCR analysis relative to control; format: functional
[9] = tested on: Mus musculus; assay: Inhibition of LATS in C57BL/6J mouse assessed as change in Ki67 protein expression level at 10 mg/kg, po administered as single dose measured after 24 hrs by immunohistochemistry analysis relative to control; format: functional
[10] = Drug level in post wash cell pellets of human limbal stem cells by LC-MS analysis; format: ADME
[11] = biological target: T1, Serine/threonine-protein kinase LATS (Homo sapiens); assay: Inhibition of LATS in human limbal epithelial cells assessed as induction of cell differentiation into corneal epithelial cells by measuring keratin-12 expression at 10 uM incubated for 8 to 10 days followed by medium change to DMEM medium without serum and compound for further incubation for 4 to 8 days by confocal microscopy; format: cell-based

SMILES: FC(F)(F)C1CN(c2nc(-c3ccncc3)nc3cnccc23)CCN1 (stereo not given)
- Activity [1]: 57 to 97%
- Activity [2]: 2070 /mm2

SMILES: c1cc(-c2cc(NC3CCCC3)c3ccncc3n2)ccn1
- IC50 [3]: 7 nM

SMILES: c1cc(-c2nc(NC3CCCC3)c3ccncc3n2)ccn1
- Activity [1]: 57 to 97%
- Activity [2]: 1700 /mm2

SMILES: FC(F)(F)C1(Nc2nc(-c3ccncc3)nc3cnccc23)CCC1
- Activity [1]: 57 to 97%
- Activity [2]: 3300 /mm2

SMILES: CN(C)CCC(C)(C)Nc1nc(-c2ccncc2)nc2cnccc12
- IC50 [3]: 1 nM

SMILES: C[C@H](N(C)c1nc(-c2ccncc2)nc2cnccc12)C(F)(F)F
- Drug uptake [4]: 0.004 to 0.071 nM
- Drug uptake [5]: 340 pg
- Drug uptake [6]: 0.75 pg

SMILES: Cc1n[nH]c(C)c1-c1nc(NC(C)(C)C(F)(F)F)c2ccncc2n1
- IC50 [3]: 10 nM

SMILES: CC(C)(Nc1nc(-c2ccncc2Cl)nc2cnccc12)C(F)(F)F
- Activity [1]: 57 to 97%
- Activity [2]: 1180 /mm2

SMILES: CC1(C)CC(O)CCN1c1cc(-c2ccncc2Cl)nc2cnccc12 (stereo not given)
- IC50 [3]: 20 nM

SMILES: CCCNc1nc(-c2c[nH]nc2C(F)(F)F)nc2cnccc12
- Activity [1]: 57 to 97%
- Activity [2]: 1890 /mm2

SMILES: CC(C)(C)Nc1cc(-c2ccncc2)nc2cnccc12
- fold change (FC) [7]: 2.5
- fold change (FC) [8]: 3.9
- Drug uptake [5]: 83 pg
- fold change (FC) [9]: 3.1
- Drug uptake [10]: 0.315 to 11 nM
- inhibition [11]: Active
- Activity [1]: 57 to 97%
- Activity [2]: 4310 /mm2
